From ChEMBL document CHEMBL3885881, “DrugMatrix”

Species: Rattus norvegicus
Experiment: DrugMatrix - Regimen: Daily Repeat
Type: toxicity, organism-based, Sprague-Dawley
Set-up: regimen Daily Repeat, gender Male, age 6-8 weeks
Settings: in vivo, po, route oral GAVAGE, […]; for ABSOLUTE BASOPHIL / ABSOLUTE EOSINOPHIL / ABSOLUTE LYMPHOCYTE / ABSOLUTE MONOCYTE / ABSOLUTE SEGMENTED NEUTROPHIL / BASOPHIL / EOSINOPHIL / ERYTHROCYTE COUNT / HEMATOCRIT / HEMOGLOBIN / LEUKOCYTE COUNT / LYMPHOCYTE / MEAN CORPUSCULAR HEMOGLOBIN / MEAN CORPUSCULAR HEMOGLOBIN CONCENTRATION / MEAN CORPUSCULAR VOLUME / MONOCYTE / NEUTROPHIL / NUCLEATED RED BLOOD CELLS / PLATELET COUNT: tissue Blood; for ALANINE AMINOTRANSFERASE / ALBUMIN / ALKALINE PHOSPHATASE / ASPARTATE AMINOTRANSFERASE / BLOOD UREA NITROGEN / CARBON DIOXIDE / CHLORIDE / CHOLESTEROL / CREATINE PHOSPHOKINASE / CREATININE / GLUCOSE / LACTATE DEHYDROGENASE / LIPASE / PHOSPHORUS / POTASSIUM / SODIUM / TOTAL BILIRUBIN / TOTAL PROTEIN: tissue Plasma
[1] = 0 mg/kg, 72 h, dose level Control, time 3 day
[2] = 0 mg/kg, 120 h, dose level Control, time 5 day
[3] = 40 mg/kg, 72 h, dose level Low, time 3 day

In the case of `CN(C)CCCC1(c2ccc(F)cc2)OCc2cc(C#N)ccc21` (stereo not given) [CITALOPRAM], the “ABSOLUTE BASOPHIL” value [1] is reported as 0 CELLS/uL, the “ABSOLUTE EOSINOPHIL” value [1] is reported as 41.83 CELLS/uL and the “ABSOLUTE LYMPHOCYTE” value [1] is reported as 8545.5 CELLS/uL. The “ABSOLUTE MONOCYTE” value [1] was 240 CELLS/uL, the “ABSOLUTE SEGMENTED NEUTROPHIL” value [1] was 906 CELLS/uL and the BASOPHIL [1] was 0%. For the same molecule, the EOSINOPHIL [1] was 0.33%, the “ERYTHROCYTE COUNT” value [1] was 5.6 x10E6/uL and the HEMATOCRIT [1] was 35.4%. For the same molecule, the HEMOGLOBIN [1] was 13.42 G/DL, the “LEUKOCYTE COUNT” value [1] was 9.73 x10E3/uL and the LYMPHOCYTE [1] was 87.83%. The “MEAN CORPUSCULAR HEMOGLOBIN” value [1] was 23.98 pg, the “MEAN CORPUSCULAR HEMOGLOBIN CONCENTRATION” value [1] was 37.92 G/DL and the “MEAN CORPUSCULAR VOLUME” value [1] was 63.3 fL. The MONOCYTE [1] was 2.5%, the NEUTROPHIL [1] was 9.33% and the “NUCLEATED RED BLOOD CELLS” value [1] was 0 /100WBC. The “PLATELET COUNT” value [1] was 1032 x10E3/uL, the “ALANINE AMINOTRANSFERASE” value [1] was 72.83 u/L and the ALBUMIN [1] was 4 G/DL. The “ALKALINE PHOSPHATASE” value [1] was 322.83 u/L, the “ASPARTATE AMINOTRANSFERASE” value [1] was 102.67 u/L and the “BLOOD UREA NITROGEN” value [1] was 12 mg/dL. The “CARBON DIOXIDE” value [1] was 34.33 mmol/L, the CHLORIDE [1] was 97.67 MEQ/L and the CHOLESTEROL [1] was 82.5 mg/dL. For the same molecule, the “CREATINE PHOSPHOKINASE” value [1] was 410.33 u/L, the CREATININE [1] was 0.18 mg/dL and the GLUCOSE [1] was 164.5 mg/dL. For the same molecule, the “LACTATE DEHYDROGENASE” value [1] was 119.5 u/L, the LIPASE [1] was 11.83 u/L and the PHOSPHORUS [1] was 9.52 mg/dL. For the same molecule, the POTASSIUM [1] was 5.56 MEQ/L, the SODIUM [1] was 142.48 MEQ/L and the “TOTAL BILIRUBIN” value [1] was 0.18 mg/dL. For the same molecule, the “TOTAL PROTEIN” value [1] was 5.77 G/DL, the “ABSOLUTE BASOPHIL” value [2] was 0 CELLS/uL and the “ABSOLUTE EOSINOPHIL” value [2] was 0 CELLS/uL. For the same molecule, the “ABSOLUTE LYMPHOCYTE” value [2] was 9065 CELLS/uL, the “ABSOLUTE MONOCYTE” value [2] was 341.33 CELLS/uL and the “ABSOLUTE SEGMENTED NEUTROPHIL” value [2] was 527 CELLS/uL. The BASOPHIL [2] was 0%, the EOSINOPHIL [2] was 0% and the “ERYTHROCYTE COUNT” value [2] was 5.25 x10E6/uL. For the same molecule, the HEMATOCRIT [2] was 34.08%, the HEMOGLOBIN [2] was 13.5 G/DL and the “LEUKOCYTE COUNT” value [2] was 9.93 x10E3/uL. For the same molecule, the LYMPHOCYTE [2] was 91.17%, the “MEAN CORPUSCULAR HEMOGLOBIN” value [2] was 25.7 pg and the “MEAN CORPUSCULAR HEMOGLOBIN CONCENTRATION” value [2] was 39.62 G/DL. The “MEAN CORPUSCULAR VOLUME” value [2] was 64.93 fL, the MONOCYTE [2] was 3.33% and the NEUTROPHIL [2] was 5.5%. The “NUCLEATED RED BLOOD CELLS” value [2] was 0 /100WBC, the “PLATELET COUNT” value [2] was 1077.5 x10E3/uL and the “ALANINE AMINOTRANSFERASE” value [2] was 57.83 u/L. For the same molecule, the ALBUMIN [2] was 4.07 G/DL, the “ALKALINE PHOSPHATASE” value [2] was 319.17 u/L and the “ASPARTATE AMINOTRANSFERASE” value [2] was 83.33 u/L. The “BLOOD UREA NITROGEN” value [2] was 13.67 mg/dL, the “CARBON DIOXIDE” value [2] was 30.83 mmol/L and the CHLORIDE [2] was 98.33 MEQ/L. The CHOLESTEROL [2] was 64.83 mg/dL, the “CREATINE PHOSPHOKINASE” value [2] was 263.67 u/L and the CREATININE [2] was 0.2 mg/dL. The GLUCOSE [2] was 182.83 mg/dL, the “LACTATE DEHYDROGENASE” value [2] was 124 u/L and the LIPASE [2] was 10.5 u/L. The PHOSPHORUS [2] was 10 mg/dL, the POTASSIUM [2] was 5.78 MEQ/L and the SODIUM [2] was 142.48 MEQ/L. For the same molecule, the “TOTAL BILIRUBIN” value [2] was 0.2 mg/dL, the “TOTAL PROTEIN” value [2] was 6 G/DL and the “ABSOLUTE BASOPHIL” value [3] was 0 CELLS/uL. The “ABSOLUTE EOSINOPHIL” value [3] was 46.33 CELLS/uL, the “ABSOLUTE LYMPHOCYTE” value [3] was 12847 CELLS/uL and the “ABSOLUTE MONOCYTE” value [3] was 96.67 CELLS/uL. The “ABSOLUTE SEGMENTED NEUTROPHIL” value [3] was 810 CELLS/uL, the BASOPHIL [3] was 0% and the EOSINOPHIL [3] was 0.33%. The “ERYTHROCYTE COUNT” value [3] was 5.4 x10E6/uL, the HEMATOCRIT [3] was 34.8% and the HEMOGLOBIN [3] was 13.67 G/DL. For the same molecule, the “LEUKOCYTE COUNT” value [3] was 13.8 x10E3/uL, the LYMPHOCYTE [3] was 93% and the “MEAN CORPUSCULAR HEMOGLOBIN” value [3] was 25.3 pg. For the same molecule, the “MEAN CORPUSCULAR HEMOGLOBIN CONCENTRATION” value [3] was 39.27 G/DL, the “MEAN CORPUSCULAR VOLUME” value [3] was 64.37 fL and the MONOCYTE [3] was 0.67%. For the same molecule, the NEUTROPHIL [3] was 6%, the “NUCLEATED RED BLOOD CELLS” value [3] was 0 /100WBC and the “PLATELET COUNT” value [3] was 979.33 x10E3/uL. The “ALANINE AMINOTRANSFERASE” value [3] was 61.33 u/L, the ALBUMIN [3] was 3.93 G/DL and the “ALKALINE PHOSPHATASE” value [3] was 390.33 u/L. For the same molecule, the “ASPARTATE AMINOTRANSFERASE” value [3] was 85.33 u/L, the “BLOOD UREA NITROGEN” value [3] was 9.33 mg/dL and the “CARBON DIOXIDE” value [3] was 28 mmol/L. The CHLORIDE [3] was 101 MEQ/L, the CHOLESTEROL [3] was 69.67 mg/dL and the “CREATINE PHOSPHOKINASE” value [3] was 135.67 u/L. The CREATININE [3] was 0.31 mg/dL, the GLUCOSE [3] was 158.67 mg/dL and the “LACTATE DEHYDROGENASE” value [3] was 101.67 u/L. It also gave an LIPASE [3] of 14.33 u/L, a PHOSPHORUS [3] of 10.5 mg/dL and a POTASSIUM [3] of 6.13 MEQ/L. For the same molecule, the SODIUM [3] was 144.7 MEQ/L and the “TOTAL BILIRUBIN” value [3] was 0.17 mg/dL.
